Non-standard residues stand in square brackets, D forms with d. Residues, ends and D or L forms follow the SMILES beside them. *: point of attachment. FITC = O=C1OC2(c3ccc(O)cc3Oc3cc(O)ccc32)c2ccc(NC(=S)*)cc21; Phe(4-Me) = Cc1ccc(C[C@H](N)C(=O)O)cc1
Tests used:
Test in all cases: BRET binding of FITC-VPM-p15
Rluc-ADGRG2-ΔGPS-β N667A = biological target: T1, Rluc-ADGRG2-ΔGPS-β N667A (Mus musculus, UniProt Q8CJ12, N681A); conditions: mutant N667A
T1 construct: the entire ECD (including the entire GPS motif) was removed (ADGRG2-ΔGPS-β); expressed in transfected cells; host or cells: HEK293
Protocol: (§1) The binding capacities of ADGRG2 WT or its mutants for VPM-p15 were determined by BRET assay, which has been used in previous studies ([27], [28], [29]). We fused the N terminus of ADGRG2 with a Rluc fragment and coupled FITC to the C terminus of VPM-p15 to facilitate BRET measurement. We stimulated the HEK293 cells transfected with Rluc-ADGRG2-ΔGPS-β wildtype (WT) or mutants by increasing the concentration of FITC-conjugated VPM-p15, and their binding abilities were determined by fitting the data with the saturation curves.
(§2) In the detection of binding capacities of ADGRG2 WT or its mutants for VPM-p15, HEK293 cells were transfected with Rluc-ADGRG2-ΔGPS-β or mutants. Transfected cells were stimulated by increasing the concentration of FITC-conjugated VPM-p15. Binding capacities were determined by BRET, EC50 values of ADGRG2 WT and its mutants for binding VPM-p15 were calculated by GraphPad, and data were normalized by EC50 of WT.

Rluc-ADGRG2-ΔGPS-β V769A = biological target: T2, Rluc-ADGRG2-ΔGPS-β V769A (Mus musculus, UniProt Q8CJ12, V783A); conditions: mutant V769A
T2 construct: expressed in transfected cells; host or cells: HEK293
Protocol: as §1, §2

Rluc-ADGRG2-ΔGPS-β Y611A = biological target: T3, Rluc-ADGRG2-ΔGPS-β Y611A (Mus musculus, UniProt Q8CJ12, Y625A); conditions: mutant Y611A
T3 construct: the entire ECD (including the entire GPS motif) was removed (ADGRG2-ΔGPS-β); expressed in transfected cells; host or cells: HEK293
Protocol: as §1, §2

Rluc-ADGRG2-ΔGPS-β V774A = biological target: T4, Rluc-ADGRG2-ΔGPS-β V774A (Mus musculus, UniProt Q8CJ12, V788A); conditions: mutant V774A
T4 construct: expressed in transfected cells; host or cells: HEK293
Protocol: as §1, §2

Rluc-ADGRG2-ΔGPS-β I663A = biological target: T5, Rluc-ADGRG2-ΔGPS-β I663A (Mus musculus, UniProt Q8CJ12, I677A); conditions: mutant I663A
T5 construct: the entire ECD (including the entire GPS motif) was removed (ADGRG2-ΔGPS-β); expressed in transfected cells; host or cells: HEK293
Protocol: as §1, §2

Rluc-ADGRG2-ΔGPS-β Y666A = biological target: T6, Rluc-ADGRG2-ΔGPS-β Y666A (Mus musculus, UniProt Q8CJ12, Y680A); conditions: mutant Y666A
T6 construct: the entire ECD (including the entire GPS motif) was removed (ADGRG2-ΔGPS-β); expressed in transfected cells; host or cells: HEK293
Protocol: as §1, §2

Rluc-ADGRG2-ΔGPS-β F764A = biological target: T7, Rluc-ADGRG2-ΔGPS-β F764A (Mus musculus, UniProt Q8CJ12, F778A); conditions: mutant F764A
T7 construct: the entire ECD (including the entire GPS motif) was removed (ADGRG2-ΔGPS-β); expressed in transfected cells; host or cells: HEK293
Protocol: as §1, §2

Rluc-ADGRG2-ΔGPS-β F747A = biological target: T8, Rluc-ADGRG2-ΔGPS-β F747A (Mus musculus, UniProt Q8CJ12, F761A); conditions: mutant F747A
T8 construct: the entire ECD (including the entire GPS motif) was removed (ADGRG2-ΔGPS-β); expressed in transfected cells; host or cells: HEK293
Protocol: as §1, §2

Rluc-ADGRG2-ΔGPS-β S661A = biological target: T9, Rluc-ADGRG2-ΔGPS-β S661A (Mus musculus, UniProt Q8CJ12, S675A); conditions: mutant S661A
T9 construct: the entire ECD (including the entire GPS motif) was removed (ADGRG2-ΔGPS-β); expressed in transfected cells; host or cells: HEK293
Protocol: as §1, §2

Rluc-ADGRG2-ΔGPS-β V834A = biological target: T10, Rluc-ADGRG2-ΔGPS-β V834A (Mus musculus, UniProt Q8CJ12, V848A); conditions: mutant V834A
T10 construct: expressed in transfected cells; host or cells: HEK293
Protocol: as §1, §2

Rluc-ADGRG2-ΔGPS-β S760A = biological target: T11, Rluc-ADGRG2-ΔGPS-β S760A (Mus musculus, UniProt Q8CJ12, S774A); conditions: mutant S760A
T11 construct: the entire ECD (including the entire GPS motif) was removed (ADGRG2-ΔGPS-β); expressed in transfected cells; host or cells: HEK293
Protocol: as §1, §2

Rluc-ADGRG2-ΔGPS-β I844A = biological target: T12, Rluc-ADGRG2-ΔGPS-β I844A (Mus musculus, UniProt Q8CJ12, I858A); conditions: mutant I844A
T12 construct: expressed in transfected cells; host or cells: HEK293
Protocol: as §1, §2

Rluc-ADGRG2-ΔGPS-β F826A = biological target: T13, Rluc-ADGRG2-ΔGPS-β F826A (Mus musculus, UniProt Q8CJ12, F840A); conditions: mutant F826A
T13 construct: expressed in transfected cells; host or cells: HEK293
Protocol: as §1, §2

Rluc-ADGRG2-ΔGPS-β F845A = biological target: T14, Rluc-ADGRG2-ΔGPS-β F845A (Mus musculus, UniProt Q8CJ12, F859A); conditions: mutant F845A
T14 construct: expressed in transfected cells; host or cells: HEK293
Protocol: as §1, §2

Rluc-ADGRG2-ΔGPS-β V762A = biological target: T15, Rluc-ADGRG2-ΔGPS-β V762A (Mus musculus, UniProt Q8CJ12, V776A); conditions: mutant V762A
T15 construct: the entire ECD (including the entire GPS motif) was removed (ADGRG2-ΔGPS-β); expressed in transfected cells; host or cells: HEK293
Protocol: as §1, §2

Rluc-ADGRG2-ΔGPS-β WT = biological target: T16, Rluc-ADGRG2-ΔGPS-β WT (Mus musculus, UniProt Q8CJ12); conditions: receptor WT
T16 construct: the entire ECD (including the entire GPS motif) was removed (ADGRG2-ΔGPS-β); expressed in transfected cells; host or cells: HEK293
Protocol: as §1, §2

Rluc-ADGRG2-ΔGPS-β W662A = biological target: T17, Rluc-ADGRG2-ΔGPS-β W662A (Mus musculus, UniProt Q8CJ12, W676A); conditions: mutant W662A
T17 construct: the entire ECD (including the entire GPS motif) was removed (ADGRG2-ΔGPS-β); expressed in transfected cells; host or cells: HEK293
Protocol: as §1, §2

Rluc-ADGRG2-ΔGPS-β F828A = biological target: T18, Rluc-ADGRG2-ΔGPS-β F828A (Mus musculus, UniProt Q8CJ12, F842A); conditions: mutant F828A
T18 construct: expressed in transfected cells; host or cells: HEK293
Protocol: as §1, §2

[1] = Kd(mutated ADGRG2-ΔGPS-β)/Kd(WT)

T17 sequence (Q8CJ12 618-1009 W676A limits assumed): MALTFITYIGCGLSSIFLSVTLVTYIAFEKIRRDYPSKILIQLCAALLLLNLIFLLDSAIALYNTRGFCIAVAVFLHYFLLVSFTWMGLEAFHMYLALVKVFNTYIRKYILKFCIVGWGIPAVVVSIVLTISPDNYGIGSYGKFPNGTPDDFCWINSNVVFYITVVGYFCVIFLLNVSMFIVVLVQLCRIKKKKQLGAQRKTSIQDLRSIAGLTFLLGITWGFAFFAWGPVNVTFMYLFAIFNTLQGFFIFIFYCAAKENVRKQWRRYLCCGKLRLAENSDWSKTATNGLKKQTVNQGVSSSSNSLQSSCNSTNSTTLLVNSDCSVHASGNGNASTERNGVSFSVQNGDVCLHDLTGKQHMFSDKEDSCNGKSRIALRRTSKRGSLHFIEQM
T7 sequence (Q8CJ12 618-1009 F778A limits assumed): as the sequence (Q8CJ12 618-1009 W676A limits assumed) above, with A59W, F161A counted along it
T12 sequence (Q8CJ12 614-1009 I858A): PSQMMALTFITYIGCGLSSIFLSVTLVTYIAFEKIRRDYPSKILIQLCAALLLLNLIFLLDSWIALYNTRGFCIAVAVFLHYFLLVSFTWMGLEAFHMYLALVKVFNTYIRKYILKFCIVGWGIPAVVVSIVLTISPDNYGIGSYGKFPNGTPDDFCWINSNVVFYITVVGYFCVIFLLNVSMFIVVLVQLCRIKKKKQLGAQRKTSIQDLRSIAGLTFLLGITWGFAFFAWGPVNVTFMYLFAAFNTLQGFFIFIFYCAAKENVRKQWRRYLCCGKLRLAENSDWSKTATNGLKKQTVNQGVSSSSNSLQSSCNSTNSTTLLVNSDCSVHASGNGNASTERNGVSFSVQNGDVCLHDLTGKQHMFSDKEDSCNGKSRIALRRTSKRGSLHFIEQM
T5 sequence (Q8CJ12 618-1009 I677A limits assumed): as the sequence (Q8CJ12 618-1009 W676A limits assumed) above, with A59W, I60A counted along it
T6 sequence (Q8CJ12 618-1009 Y680A limits assumed): as the sequence (Q8CJ12 618-1009 W676A limits assumed) above, with A59W, Y63A counted along it
T8 sequence (Q8CJ12 618-1009 F761A limits assumed): as the sequence (Q8CJ12 618-1009 W676A limits assumed) above, with A59W, F144A counted along it
T1 sequence (Q8CJ12 618-1009 N681A limits assumed): as the sequence (Q8CJ12 618-1009 W676A limits assumed) above, with A59W, N64A counted along it
T2 sequence (Q8CJ12 614-1009 V783A): as the sequence (Q8CJ12 614-1009 I858A) above, with V170A, A245I counted along it
T3 sequence (Q8CJ12 618-1009 Y625A limits assumed): as the sequence (Q8CJ12 618-1009 W676A limits assumed) above, with Y8A, A59W counted along it
T16 sequence (Q8CJ12 618-1009 limits assumed, stated change not applied): as the sequence (Q8CJ12 618-1009 W676A limits assumed) above, with A59W counted along it
T9 sequence (Q8CJ12 618-1009 S675A limits assumed): as the sequence (Q8CJ12 618-1009 W676A limits assumed) above, with S58A, A59W counted along it
T15 sequence (Q8CJ12 618-1009 V776A limits assumed): as the sequence (Q8CJ12 618-1009 W676A limits assumed) above, with A59W, V159A counted along it
T13 sequence (Q8CJ12 614-1009 F840A): as the sequence (Q8CJ12 614-1009 I858A) above, with F227A, A245I counted along it
T14 sequence (Q8CJ12 614-1009 F859A): as the sequence (Q8CJ12 614-1009 I858A) above, with A245I, F246A counted along it
T11 sequence (Q8CJ12 618-1009 S774A limits assumed): as the sequence (Q8CJ12 618-1009 W676A limits assumed) above, with A59W, S157A counted along it
T10 sequence (Q8CJ12 614-1009 V848A): as the sequence (Q8CJ12 614-1009 I858A) above, with V235A, A245I counted along it
T4 sequence (Q8CJ12 614-1009 V788A): as the sequence (Q8CJ12 614-1009 I858A) above, with V175A, A245I counted along it
T18 sequence (Q8CJ12 614-1009 F842A): as the sequence (Q8CJ12 614-1009 I858A) above, with F229A, A245I counted along it

Compound: CC[C@H](C)[C@H](NC(=O)CNC(=O)[C@H](Cc1ccc(C)cc1)NC(=O)[C@H](CO)NC(=O)[C@@H](N)C(C)C)C(=O)N[C@@H](CC(C)C)C(=O)N[C@@H](CC(C)C)C(=O)N[C@@H](CC(=O)O)C(=O)N[C@@H](CC(C)C)C(=O)N[C@@H](CO)C(=O)N[C@@H](CCCNC(=N)N)C(=O)N[C@H](C(=O)N[C@@H](CO)C(=O)N[C@@H](CC(C)C)C(=O)N1CCC[C@H]1C(=O)N[C@@H](CCCCNC(=S)Nc1ccc2c(c1)C(=O)OC21c2ccc(O)cc2Oc2cc(O)ccc21)C(=O)O)[C@@H](C)O [FITC-VPM-p15] (H-VS[Phe(4-Me)]GILLDLSRTSLPK(FITC)-OH; N-terminus and C-terminus assumed)
- Fmut (Rluc-ADGRG2-ΔGPS-β N667A; [1]): 0.975
- Bmax (Rluc-ADGRG2-ΔGPS-β N667A; binding Bmax (BRET)): 0.803±0.028
- Fmut (Rluc-ADGRG2-ΔGPS-β V769A; [1]): 1.145
- Bmax (Rluc-ADGRG2-ΔGPS-β V769A; binding Bmax (BRET)): 0.763±0.074
- Fmut (Rluc-ADGRG2-ΔGPS-β Y611A; [1]): 0.761
- Bmax (Rluc-ADGRG2-ΔGPS-β Y611A; binding Bmax (BRET)): 0.7912±0.020
- Fmut (Rluc-ADGRG2-ΔGPS-β V774A; [1]): 1.149
- Bmax (Rluc-ADGRG2-ΔGPS-β V774A; binding Bmax (BRET)): 0.820±0.032
- Fmut (Rluc-ADGRG2-ΔGPS-β I663A; [1]): 0.825
- Bmax (Rluc-ADGRG2-ΔGPS-β I663A; binding Bmax (BRET)): 0.814±0.043
- Fmut (Rluc-ADGRG2-ΔGPS-β Y666A; [1]): 0.895
- Bmax (Rluc-ADGRG2-ΔGPS-β Y666A; binding Bmax (BRET)): 0.809±0.029
- Fmut (Rluc-ADGRG2-ΔGPS-β F764A; [1]): 1.183
- Bmax (Rluc-ADGRG2-ΔGPS-β F764A; binding Bmax (BRET)): 0.814±0.039
- Fmut (Rluc-ADGRG2-ΔGPS-β F747A; [1]): 0.811
- Bmax (Rluc-ADGRG2-ΔGPS-β F747A; binding Bmax (BRET)): 0.813±0.041
- Fmut (Rluc-ADGRG2-ΔGPS-β S661A; [1]): 0.832
- Bmax (Rluc-ADGRG2-ΔGPS-β S661A; binding Bmax (BRET)): 0.6895±0.021
- Fmut (Rluc-ADGRG2-ΔGPS-β V834A; [1]): 1.196
- Bmax (Rluc-ADGRG2-ΔGPS-β V834A; binding Bmax (BRET)): 0.789±0.016
- Fmut (Rluc-ADGRG2-ΔGPS-β S760A; [1]): 1.444
- Bmax (Rluc-ADGRG2-ΔGPS-β S760A; binding Bmax (BRET)): 0.716±0.011
- Fmut (Rluc-ADGRG2-ΔGPS-β I844A; [1]): 1.640
- Bmax (Rluc-ADGRG2-ΔGPS-β I844A; binding Bmax (BRET)): 0.729±0.093
- Fmut (Rluc-ADGRG2-ΔGPS-β F826A; [1]): 1.248
- Bmax (Rluc-ADGRG2-ΔGPS-β F826A; binding Bmax (BRET)): 0.734±0.035
- Fmut (Rluc-ADGRG2-ΔGPS-β F845A; [1]): 1.452
- Bmax (Rluc-ADGRG2-ΔGPS-β F845A; binding Bmax (BRET)): 0.749±0.071
- Fmut (Rluc-ADGRG2-ΔGPS-β V762A; [1]): 1.268
- Bmax (Rluc-ADGRG2-ΔGPS-β V762A; binding Bmax (BRET)): 0.798±0.021
- Fmut (Rluc-ADGRG2-ΔGPS-β WT; [1]): 1.000
- Bmax (Rluc-ADGRG2-ΔGPS-β WT; binding Bmax (BRET)): 0.809±0.015
- Fmut (Rluc-ADGRG2-ΔGPS-β W662A; [1]): 1.128
- Bmax (Rluc-ADGRG2-ΔGPS-β W662A; binding Bmax (BRET)): 0.808±0.047
- Fmut (Rluc-ADGRG2-ΔGPS-β F828A; [1]): 1.247
- Bmax (Rluc-ADGRG2-ΔGPS-β F828A; binding Bmax (BRET)): 0.706±0.006
